Measurements taken from US20240293559A1, “SHP2 inhibitor, pharmaceutical composition containing the same and application thereof” (BEIJING TIDE PHARMACEUTICAL CO., LTD., priority 2021, published 2024).

Target: T1, SHP2 (Homo sapiens, UniProt Q06124)
T1 construct: endogenous in cells; host or cells: MV 411
T1 sequence (Q06124 1-593): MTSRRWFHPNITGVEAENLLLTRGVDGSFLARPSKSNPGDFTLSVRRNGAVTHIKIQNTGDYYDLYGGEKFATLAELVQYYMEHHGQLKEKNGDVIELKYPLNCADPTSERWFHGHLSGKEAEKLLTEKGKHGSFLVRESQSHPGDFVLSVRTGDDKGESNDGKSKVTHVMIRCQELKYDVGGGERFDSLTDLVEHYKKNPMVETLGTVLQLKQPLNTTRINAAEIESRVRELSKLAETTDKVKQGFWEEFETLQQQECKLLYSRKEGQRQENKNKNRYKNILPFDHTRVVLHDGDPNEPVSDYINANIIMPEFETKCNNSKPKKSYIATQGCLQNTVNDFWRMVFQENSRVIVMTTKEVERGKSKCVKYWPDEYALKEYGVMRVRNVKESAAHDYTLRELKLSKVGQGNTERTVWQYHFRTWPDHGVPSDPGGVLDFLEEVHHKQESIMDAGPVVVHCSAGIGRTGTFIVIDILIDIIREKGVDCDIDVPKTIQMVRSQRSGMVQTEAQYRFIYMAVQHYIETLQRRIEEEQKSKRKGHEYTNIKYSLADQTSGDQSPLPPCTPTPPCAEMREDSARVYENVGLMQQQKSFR
Assay: SHP2 degradation in MV 411 cells by Western blot (median degradation concentration)
Type: cell-based
Details: 24 hours with compound, SHP-2 antibody Western blot, concentration of the median degradation from exposure gray scale
From the text: Reagent: complete DMEM medium, Gibco products. Fetal bovine serum, manufactured byThermoFisher. Trypsin, manufactured byThermoFisher. The SHP-2 antibody is produced by CST. Cell line, MV 411, the blast cells of patients with bi-phenotypic B-myelomonocytic leukemia, was established by Rovera. Measuring method: took the cells growing in the logarithmic phase, collected and suspended the cells in DMEM containing 10% fetal calf serum, gently blowed and beated the cells into single cell suspension by using a pipette, and counted the living cells under a microscope. […] Then cultured for 24 hours. All cells were collected and washed with PBS, lysed with RIPA lysate and collected into a 1.7 ml tube. […] metal bath for 5 minutes to fully denature the protein. 100V constant voltage electrophoresis after Western condensation and loading, stopped when bromophenol blue band reached the end point. The cellulose acetate membrane is transferred by a wet method, 45 minutes at a constant flow of 300-500 mA, 5% BSA is used for blocking for 1-2 hours at room temperature. Primary antibody of 1:500-1:8000 were used for incubation at 25° C. for 40 minutes and then washed three times. Secondary antibody was used for incubation for 15-40 min at room temperature. The proteins were detected using ultrasensitive ECL luminophores such as […], using an X-Ray film automatic developing machine. The concentration of the median degradation was calculated by exposure gray scale.

SMILES | DC50
CCOc1cc2oc(-c3ccc(OCCOCCOCCOCCOc4cccc5c4C(=O)N(C4CCC(=O)NC4=O)C5=O)cc3Cl)cc(=O)c2cc1-c1cc(C(N)=O)cc(N(C)C(C)=O)c1 (stereo not drawn) [Compound 65] | > 250 nM
CCOc1cc2oc(-c3ccc(OCCOCCOCCOCCOc4cccc5c4C(=O)N(C4CCC(=O)NC4=O)C5=O)cc3Cl)cc(=O)c2cc1-c1cc(NS(=O)(=O)c2ccccc2)cc(C(N)=O)c1 (stereo not drawn) [Compound 68] | > 250 nM
CCOc1cc2oc(-c3ccc(OCCOCCOCCOCCOc4cccc5c4C(=O)N(C4CCC(=O)NC4=O)C5=O)cc3Cl)cc(=O)c2cc1-c1cc(C(N)=O)cc(N(C)S(=O)(=O)c2ccccc2)c1 (stereo not drawn) [Compound 69] | > 250 nM
CCOc1cc2oc(-c3ccc(OCCOCCOCCOCCOc4cccc5c4C(=O)N(C4CCC(=O)NC4=O)C5=O)cc3Cl)cc(=O)c2cc1-c1cc(NC(=O)NC)cc(C(N)=O)c1 (stereo not drawn) [Compound 70] | > 250 nM
CCOc1cc2oc(-c3ccc(OCCOCCOCCOCCOc4cccc5c4C(=O)N(C4CCC(=O)NC4=O)C5=O)cc3Cl)cc(=O)c2cc1-c1cc(NC(=O)Nc2ccccc2)cc(C(N)=O)c1 (stereo not drawn) [Compound 71] | > 250 nM
CCOc1cc2oc(-c3ccc(OCCOCCOCCOCCOc4cccc5c4C(=O)N(C4CCC(=O)NC4=O)C5=O)cc3Cl)cc(=O)c2cc1CCC(=O)Nc1ccccc1 (stereo not drawn) [Compound 72] | > 250 nM
CCOc1cc2oc(-c3ccc(OCCOCCOCCOCCOc4cccc5c4C(=O)N(C4CCC(=O)NC4=O)C5=O)cc3Cl)cc(=O)c2cc1-c1cc(C(N)=O)cc(C(N)=O)c1 (stereo not drawn) [Compound 74] | 2 nM
CCOc1cc2oc(-c3ccc(OCCOCCOCCOCCOc4cccc5c4C(=O)N(C4CCC(=O)NC4=O)C5=O)cc3Cl)cc(=O)c2cc1-c1cc(C(N)=O)cc(C(=O)Nc2ccccc2)c1 (stereo not drawn) [Compound 78] | > 250 nM
CCOc1cc2oc(-c3ccc(NCCOCCOCCOCCOc4ccc5c(c4)C(=O)N(C4CCC(=O)NC4=O)C5=O)cc3Cl)cc(=O)c2cc1-c1cccc(C(C)=O)c1 (stereo not drawn) [Compound 86] | 50 nM
CCOc1cc2oc(-c3ccc(OCCOCCOCCOCCOc4ccc5c(c4)C(=O)N(C4CCC(=O)NC4=O)C5=O)cc3Cl)cc(=O)c2cc1-c1cncc(C(C)=O)c1 (stereo not drawn) [Compound 87] | 45 nM
CCOc1cc2oc(-c3ccc(OCc4cn(CC(=O)N5CCC(OC6CC(Oc7cccc8c7C(=O)N(C7CCC(=O)NC7=O)C8=O)C6)CC5)nn4)cc3Cl)cc(=O)c2cc1-c1cccc(C(C)=O)c1 (stereo not drawn) [Compound 88] | 55 nM
CCOc1cc2oc(-c3ccc(NCCOCCOCCOCCOc4cccc5c4C(=O)N(C4CCC(=O)N(COC(=O)CC6CCCCC6)C4=O)C5=O)cc3Cl)cc(=O)c2cc1-c1cccc(C(C)=O)c1 (stereo not drawn) [Compound 89] | 75 nM

Results, then the compound that gave them:

DC50 | SMILES
> 250 nM | CCOc1cc2oc(-c3ccc(OCCOCCOCCOCCOc4cccc5c4C(=O)N(C4CCC(=O)NC4=O)C5=O)cc3Cl)cc(=O)c2cc1-c1cc(NS(C)(=O)=O)cc(C(N)=O)c1 (stereo not drawn) [Compound 66]
> 250 nM | CCOc1cc2oc(-c3ccc(OCCOCCOCCOCCOc4cccc5c4C(=O)N(C4CCC(=O)NC4=O)C5=O)cc3Cl)cc(=O)c2cc1-c1cc(C(N)=O)cc(N(C)S(C)(=O)=O)c1 (stereo not drawn) [Compound 67]
> 250 nM | CCOc1cc2oc(-c3ccc(OCCOCCOCCOCCOc4cccc5c4C(=O)N(C4CCC(=O)NC4=O)C5=O)cc3Cl)cc(=O)c2cc1-c1cc(O)cc(C(N)=O)c1 (stereo not drawn) [Compound 73]
24.6 nM | CCOc1cc2oc(-c3ccc(OCCOCCOCCOCCOc4cccc5c4C(=O)N(C4CCC(=O)NC4=O)C5=O)cc3Cl)cc(=O)c2cc1-c1cc(C(C)=O)cc(C(N)=O)c1 (stereo not drawn) [Compound 75]
> 250 nM | CCOc1cc2oc(-c3ccc(OCCOCCOCCOCCOc4cccc5c4C(=O)N(C4CCC(=O)NC4=O)C5=O)cc3Cl)cc(=O)c2cc1-c1cc(C(N)=O)cc(C(=O)NC)c1 (stereo not drawn) [Compound 76]
> 250 nM | CCOc1cc2oc(-c3ccc(OCCOCCOCCOCCOc4cccc5c4C(=O)N(C4CCC(=O)NC4=O)C5=O)cc3Cl)cc(=O)c2cc1-c1cc(C(N)=O)cc(C(=O)N(C)C)c1 (stereo not drawn) [Compound 77]
500 nM | CCOc1cc2oc(-c3ccc(OCCOCCOCCOCCOc4cccc5c4C(=O)N(C4CCC(=O)NC4=O)C5=O)cc3Cl)cc(=O)c2cc1-c1cc(C(N)=O)cc(S(C)(=O)=O)c1 (stereo not drawn) [Compound 79]
> 500 nM | CCOc1cc2oc(-c3ccc(OCCOCCOCCOCCOc4cccc5c4C(=O)N(C4CCC(=O)NC4=O)C5=O)cc3Cl)cc(=O)c2cc1-c1cc(C(N)=O)cc(S(N)(=O)=O)c1 (stereo not drawn) [Compound 80]
> 500 nM | CCOc1cc2oc(-c3ccc(OCCOCCOCCOCCOc4cccc5c4C(=O)N(C4CCC(=O)NC4=O)C5=O)cc3Cl)cc(=O)c2cc1-c1cc(C(N)=O)cc(S(=O)(=O)NC)c1 (stereo not drawn) [Compound 81]
